Key:
[1] = Ferric reducing antioxidant power (FRAP) assay; assay type: biochemical
Method: The FRAP assay was conducted following the method outlined by Rumpf et al.. The FRAP solution was prepared by mixing 300 mM acetate buffer (pH 3.6), 10 mM TPTZ (2,4,6-Tris(2-pyridyl)-s-triazine) in 40 mM hydrochloric acid, and 20 mM FeCl3 in a ratio of 10:1:1. In a 96-well plate, 10 μL of the sample was combined with 190 μL of the FRAP solution and incubated in the dark for 15 min. The absorbance of the mixture was then measured at 593 nm. FeSO4 was used to create the standard curve, and the results were expressed as millimoles of FeSO4 equivalent per milligram of protein (mM FeSO4/mg protein).

RAW 264.7 [2] = test: Anti-inflammation assay: released NO in LPS-stimulated RAW 264.7 (Griess); assay type: cell-based, Murine; conditions: then 1 µg/mL LPS 24 h; for Released NO: peptide 10 µg/mL 1 h; for Released NO, mean±SD: peptide 10 µg/mL pre-treatment 1 h, Griess reagent, n = 3
Method: (§1) Murine macrophage cells (RAW 264.7; ATCC TIB-71™) were cultured in Dulbecco’s Modified Eagle’s Medium (DMEM) that was supplemented with 10% heat-inactivated fetal bovine serum (FBS) and 1% antibiotic solution. Colorectal adenocarcinoma cells (CaCo-2; ATCC HTB 37™) were cultured in Eagle’s Minimum Essential Medium (EMEM), also supplemented with 10% heat-inactivated FBS and 1% antibiotic solution. Both cell types were maintained in a humidified incubator with 5% CO2. The cell culture medium was refreshed every three days.
The anti-inflammation assay was conducted following the method described by Barzkar et al. with slight modifications. RAW 264.7 (1 x 10^5 cells) was seeded into a 96-well plate to allow for cell attachment. After 24 h, the cells were pre-treated with fresh medium containing peptide samples at a concentration of 10 µg/mL for 1 h. Subsequently, the treated cells were stimulated with 1 µg/mL lipopolysaccharide (LPS) for an additional 24 h. Unstimulated cells were included as a negative control. At the end of the treatment period, the conditioned medium was collected for the determination of released nitric oxide (NO). Griess’s reagent (Promega) was utilized to measure the NO concentration, following the manufacturer’s instructions. A NO calibration curve was generated to quantify the released NO in the conditioned medium.

RAW 264.7 [3] = test: Cytotoxicity assessment (MTT); assay type: cell-based, Murine; conditions: peptide 10 µg/mL, 72 h; for Cell viability, mean±SD: relative to untreated cells, n = 3, SD
Method: as §1
Cytotoxicity assessment was performed following the method described by Yang et al., with slight modifications. RAW 264.7 was seeded with 1 x 10^5 cells in a 96-well plate with an appropriate cell culture medium. After allowing the cells to attach, the medium was replaced with a fresh cell culture medium containing the peptide samples at a concentration of 10 µg/mL. The treated cells were incubated for an additional 72 h. At the designated time, fresh medium was added, which included 3-(4,5-dimethylthiazol-2-yl)-2,5-diphenyltetrazolium bromide (MTT) at a concentration of 0.5 mg/mL. After 3 h, formazan crystals were observed. The medium was then removed, and the crystals were dissolved in 100% dimethyl sulfoxide (DMSO). A microplate reader (Synergy HTX; Biotek, Multi-Mode Reader, Winooski, VT, USA) was utilized to measure the absorbance at 570 nm (measurement wavelength) and 630 nm (reference wavelength). The percentage of cell viability was calculated relative to untreated cells using the following equation (5):
Cellviability%=ODtreatment–ODblank/ODuntreated–ODblank×100 (5)
Where ODtreatment is the absorbance of the treated sample, ODuntreated is the absorbance of the untreated sample, and ODblank is the absorbance from wells without treated and untreated samples.

[4] = ABTS radical scavenging assay; assay type: biochemical; conditions: supplement tables; for ABTS, mean±SD: n = 3
Method: The ABTS radical scavenging activity of the sample was measured using a method adapted from Mirzaei et al.. The ABTS radical was generated by mixing 7 mM ABTS with 2.45 mM potassium persulfate in a 1:1 ratio and incubating the mixture in the dark at room temperature for 12 to 16 h. The resulting solution was then diluted to achieve an absorbance of 0.74 ± 0.03 at 734 nm, using deionized water for adjustments. Next, 10 μL of the sample was added to 190 μL of the ABTS solution. The mixture was incubated in the dark for 7 min, after which the absorbance was measured at 734 nm. The ABTS radical scavenging activity (%) was calculated using the following equation (2):
ABTSradicalscavengingactivity%=Acontrol–Asample/Acontrol×100 (2)
In this equation, Acontrol refers to the absorbance of the control solution (which contains all reagents except the test samples), while Asample refers to the absorbance of the mixture containing the sample and the ABTS solution. To determine the Trolox equivalent antioxidant capacity (TEAC), a Trolox standard curve was used, and the results were expressed as millimoles of Trolox equivalents per milligram of protein (mM TE/mg protein).

[5] = 10 µL sample + 190 µL FRAP solution, 15 min dark, 593 nm, FeSO4 standard curve, mean ± SD, n = 3, SD

Row | Sequence | FRAP [1, 5] | FRAP ([1]; supplement tables, replicate 1) | FRAP ([1]; supplement tables, replicate 2) | FRAP ([1]; supplement tables, replicate 3) | Released NO (RAW 264.7 [2]; replicate 1) | Released NO (RAW 264.7 [2]; replicate 2) | Released NO (RAW 264.7 [2]; replicate 3) | Released NO, mean±SD (RAW 264.7 [2]) | Cell viability, mean±SD (RAW 264.7 [3]) | Cell viability (RAW 264.7 [3]; replicate 1) | Cell viability (RAW 264.7 [3]; replicate 2) | Cell viability (RAW 264.7 [3]; replicate 3) | ABTS, mean±SD [4] | ABTS ([4]; replicate 1) | ABTS ([4]; replicate 2) | ABTS ([4]; replicate 3)
1 | DAENKENVEE [P18, synthesized peptide identified from jellyfish fraction PUR20C] | 4.40±0.43^H mM FeSO4/mg protein | 4.89 mM FeSO4/mg protein | 4.05 mM FeSO4/mg protein | 4.26 mM FeSO4/mg protein | 34.13 µM | 31.37 µM | 31.03 µM | 32.18±1.70^F µM | 89.16% | 86.29% | 87.17% | 94.02% | 6.05 TE/mg protein | 5.71 TE/mg protein | 5.51 TE/mg protein | 6.91 TE/mg protein
2 | EIDKLPPESRP [P7, synthesized peptide identified from jellyfish fraction PUR20C] | 12.40±1.36^C mM FeSO4/mg protein | 11.00 mM FeSO4/mg protein | 13.73 mM FeSO4/mg protein | 12.47 mM FeSO4/mg protein | 35.51 µM | 37.58 µM | 33.79 µM | 35.63 ± 1.89 µM | 81.60% | 81.72% | 81.89% | 81.19% | 1.64 TE/mg protein | 1.71 TE/mg protein | 1.71 TE/mg protein | 1.50 TE/mg protein
3 | EQIYPMGEGDEL [P4, synthesized peptide identified from jellyfish fraction PUR20C] | 8.40 mM FeSO4/mg protein | 8.89 mM FeSO4/mg protein | 8.47 mM FeSO4/mg protein | 7.84 mM FeSO4/mg protein | 38.96 µM | 35.86 µM | 36.55 µM | 37.12 µM | 82.77±0.92% | 83.12% | 83.47% | 81.72% | 103.41±1.20^F TE/mg protein | 103.28 TE/mg protein | 102.27 TE/mg protein | 104.68 TE/mg protein
4 | GKNCGETVWE [P9, synthesized peptide identified from jellyfish fraction PUR20C] | 13.03±0.8^C mM FeSO4/mg protein | 13.31 mM FeSO4/mg protein | 13.73 mM FeSO4/mg protein | 12.05 mM FeSO4/mg protein | 35.86 µM | 36.20 µM | 34.82 µM | 35.63 ± 0.71 µM | 87.34% | 87.34% | 86.26% | 88.40% | 103.21±2.27^F TE/mg protein | 105.08 TE/mg protein | 100.67 TE/mg protein | 103.88 TE/mg protein
5 | HSVLTASYRN [P5, synthesized peptide identified from jellyfish fraction PUR20C] | 8.19 mM FeSO4/mg protein | 7.63 mM FeSO4/mg protein | 9.52 mM FeSO4/mg protein | 7.42 mM FeSO4/mg protein | 34.13 µM | 33.44 µM | 36.20 µM | 34.59 ± 1.43 µM | 87.58% | 92.44% | 89.27% | 81.01% | 123.24±0.75^C TE/mg protein | 124.11 TE/mg protein | 122.71 TE/mg protein | 122.91 TE/mg protein
6 | KFNEVVYFL [P15, synthesized peptide identified from jellyfish fraction PUR20C] | 4.61±0.73^H mM FeSO4/mg protein | 3.84 mM FeSO4/mg protein | 4.68 mM FeSO4/mg protein | 5.31 mM FeSO4/mg protein | 32.75 µM | 32.75 µM | 34.82 µM | 33.44 µM | 87.22% | 87.87% | 85.58% | 88.22% | 131.66±1.15^B TE/mg protein | 132.32 TE/mg protein | 130.32 TE/mg protein | 132.32 TE/mg protein
7 | LGAEGRSP [P13, synthesized peptide identified from jellyfish fraction PUR20C] | 4.82±0.73^H mM FeSO4/mg protein | 4.89 mM FeSO4/mg protein | 5.52 mM FeSO4/mg protein | 4.05 mM FeSO4/mg protein | 35.17 µM | 35.51 µM | 37.58 µM | 36.09 µM | 82.77±1.53% | 81.72% | 82.07% | 84.53% | 6.51±0.87^H TE/mg protein | 5.91 TE/mg protein | 6.11 TE/mg protein | 7.51 TE/mg protein
8 | LNIPKPKLNLL [P11, synthesized peptide identified from jellyfish fraction PUR20C] | 6.36±0.63^G mM FeSO4/mg protein | 6.36 mM FeSO4/mg protein | 7.00 mM FeSO4/mg protein | 5.73 mM FeSO4/mg protein | 36.55 µM | 35.86 µM | 37.58 µM | 36.66 ± 0.86 µM | 84.71% | 84.53% | 85.41% | 84.18% | 3.91 TE/mg protein | 4.11 TE/mg protein | 3.71 TE/mg protein | 3.91 TE/mg protein

— paper PMC11813147, “Bioactivity assessment of peptides derived from salted jellyfish (Rhopilema hispidum) byproducts” (PLOS ONE, 2025)
